Laboratory results from patent US20050038248A1, “Chemotherapeutic agents” (priority 2001, published 2005).
Like-named read-outs stand apart in the source and are kept apart here.

Legend:
Assay type in all cases: cell-based
rat aorta ring = test: Rat aorta assay for angiogenesis inhibition (rat aorta ring model); settings: for inhibition at 0.5 µg/mL: 0.5 μg/mL; for inhibition at 1 µg/mL: 1 μg/mL
Source text: Rat Aorta Assay for Angiogenesis Inhibition
The rat aorta ring model based on that described by Nicosia and Ottinetti (Nicosia, R. F. et al. Lab. Investigation 63: 115, 1990; Nicosia, R. F. et al. Cell. Dev. Biol. 26: 119-128, 1990), was used throughout the assay.
The agarose was made up as a 1.5% solution in distilled water and brought to the boil to form a clear solution which was poured into sterile 9 cm petri dishes, covered and allowed to cool and set.
Maintaining sterile conditions, agarose rings were obtained by punching two concentric circles, with sterile10 and 17 mm hole punches, respectively, in the agarose gel. Using sterile forceps, the rings are removed and placed, three per well in each of the 6-well plates.
The MEM was prepared according to manufacturer's directions, but before filtering through a 0.22 μm filter, HEPES and L-glutamine were added to give 10 mM and 1 mM concentrations respectively with pH adjusted to 7.4. Eight hundred mL of this medium were filtered through a 0.2 μm filter along with the antibiotics (50 mg/L Gentamycin sulphate and 2.5 mg/L Amphotericin B) and 200 mL of FCS (to give 20%) to yield one litre of medium.
The aorta was removed from a 3-4 month male Copenhagen rat and transferred to a dissecting dish where it was cleaned and carefully stripped of the fibroadipose tissue surrounding it. Rings of 0.5 mm were cut, using a fresh scalpel blade, from the length of the aorta. These were kept under sterile conditions in a biohazard hood where they were washed 12 times with MEM.
Before transferring the aortic rings to the culture plate, the bottom of each agarose well was coated with 150 μL of clotting fibrinogen. Fibrinogen was made up as a 3 mg/mL solution in MEM, while thrombin made up in distilled water to give a concentration of 50 U/mL. The fibrinogen (1 mL) and the thrombin (20 μL) reacted within 30 sec to form a solid gel.
The aortic rings were transferred to the 6-well plates, with one ring placed in the center of each agarose well. Fresh fibrinogen/thrombin was made up as before and 150 μL was used to seal in each aortic ring. The gels were rested for approximately 2 hours before the medium was added.
[…] The compounds were made up as 6 mg/mL solution in water or DMSO. The test solutions were added to each well with the medium.
Six mL of MEM were carefully added to each of three wells to become the controls. MEM, along with the test compounds were added to the remaining wells and all were covered and transferred to the CO2 Incubator at 37° C., where they were kept for the next 14 days.
However, by the fifth day, there were noticeable changes in the tissue. Micro-vessels were seen and scored. We have based the scoring method on that used by Liekens et al. (Liekens, S., et al. Oncol. Res. 9: 173-181, 1997) in which 0 meant no vessels and 10 meant maximum vessels; the score is then converted into a percentage inhibition of vessel growth.

[1] = Cytotoxicity assay (WST-1); settings: human, HeLa cervical adenocarcinoma (epithelial) cells, 100 μM test compound
Protocol: (§1) HeLa cervical adenocarcinoma (epithelial) cells were cultured in the presence of 100 μM of test compound for 72 hours and cell viability was measured using the WST-1 tetrazolium salt (cleaved to formazan by mitochondrial respiratory chain enzymes, which are only active in viable cells). The absorbance of the dye solution was measured at 450 nm. Controls included cells alone, 0.05% NP-40 plus cells (100% cytotoxicity control) and each of the compound vehicles alone, DMSO or water at the same final concentration in medium as the compound in test wells. % Cytotoxicity was calculated as follows: % cytotoxicity=100×(1-ODtest compound/ODcells alone).

HUVEC [2] = test: Growth inhibition assay (crystal violet); settings: HUVEC proliferation, 72 h
Protocol: HUVEC (1.5×10^3) are plated in a 96-well plate in 100 μL of EBM-2 (Clonetic # CC3162). After 24 h (day 0), the test compound (100 μL) is added to each well at twice the desired concentration (5-7 concentration levels) in EBM-2 medium. On day 0, one plate is stained with 0.5% crystal violet in 20% methanol for 10 minutes, rinsed with water, and air-dried. The remaining plates are incubated for 72 h at 37° C. After 72 h, plates are stained with 0.5% crystal violet in 20% methanol, rinsed with water and air-dried. The stain is eluted with 1:1 solution of ethanol:0.1M sodium citrate (including day 0 plate), and absorbance is measured at 540 nm with an ELISA reader (Dynatech Laboratories). Day 0 absorbance is subtracted from the 72 h plates and data is plotted as percentage of control proliferation (vehicle treated cells). IC50 (drug concentration causing 50% inhibition) is calculated from the plotted data.

HUVEC [3] = test: Cord formation assay on matrigel; settings: Homo sapiens, 24 h incubation
Protocol: Matrigel (60 μL of 10 mg/mL) is placed in each well of an ice-cold 96-well plate. The plate is allowed to sit at room temperature for 15 minutes then incubated at 37° C. for 30 minutes to permit the matrigel to polymerize. In the mean time, HUVEC are prepared in EGM-2 (Clonetic # CC3162) at a concentration of 2×10^5 cells/mL. The test compound is prepared at twice the desired concentration (5 concentration levels) in the same medium. Cells (50 μL) and 2×drug […] is mixed and 200 μL of this suspension are placed in duplicate on the polymerized matrigel. After 24 h incubation, triplicate pictures are taken for each concentration using a Bioquant Image Analysis system. Drug effect (IC50) is assessed compared to untreated controls by measuring the length of cords formed and number of junctions.

HUVEC [4] = test: Cell migration assay (Boyden chamber); settings: Homo sapiens, 5 h incubation
Protocol: Migration is assessed using the 48-well Boyden chamber and 8 μm pore size collagen-coated (10 μg/mL rat tail collagen; Collaborative Laboratories) polycarbonate filters (Osmonics, Inc.). The bottom chamber wells receive 27-29 μL of DMEM medium alone (baseline) or medium containing chemo-attractant (bFGF, VEGF or Swiss 3T3 cell conditioned medium). The top chambers receive 45 μL of HUVEC cell suspension […] prepared in DMEM+1% BSA with or without test compound. After 5 h incubation at 37° C., the membrane is rinsed in PBS, fixed and stained in Diff-Quick solutions. The filter is placed on a glass slide with the migrated cells facing down and cells on top are removed using a Kimwipe. The testing is performed in 4-6 replicates and five fields are counted from each well. Negative unstimulated control values are subtracted from stimulated control and drug treated values and data is plotted as mean migrated cell±S.D. IC50 is calculated from the plotted data.

[5] = test system: HeLa cervical adenocarcinoma (epithelial) cells; test: Cytotoxicity assay (WST-1); settings: 100 μM test compound, 72 hours
Protocol: as §1

[6] = Rattus norvegicus, 120 h, day 5, read-out: Growth Inhibition % (Day)
[7] = Rattus norvegicus, 120 h, 4 μg/mL, day 5, read-out: Growth Inhibition % (Day)
[8] = Rattus norvegicus, 120 h, 10 μg/mL, day 5, read-out: Growth Inhibition % (Day)
[9] = Rattus norvegicus, 288 h, day 12, read-out: Growth Inhibition % (Day)
[10] = Rattus norvegicus, 288 h, 4 μg/mL, day 12, read-out: Growth Inhibition % (Day)
[11] = Rattus norvegicus, 288 h, 10 μg/mL, day 12, read-out: Growth Inhibition % (Day)
[12] = Rattus norvegicus, 168 h, day 7, read-out: Growth Inhibition % (Day)
[13] = Rattus norvegicus, 168 h, 4 μg/mL, day 7, read-out: Growth Inhibition % (Day)
[14] = Rattus norvegicus, 168 h, 10 μg/mL, day 7, read-out: Growth Inhibition % (Day)

Q: Which “Growth Inhibition % (Day)” value (rat aorta ring; 10 μg/mL, day 7) does the source give for `COc1ccc(NS(=O)(=O)c2ccccc2C(=O)Nc2ccncc2)cc1` [Example 16] here?
A: The value was 70 (7) %.

Q: And the “Growth Inhibition % (Day)” value (rat aorta ring; 10 μg/mL, day 12)?
A: Its value is 10 (12) %.

Q: Which results are given for `COc1ccc(NS(=O)(=O)c2ccccc2NC(=O)c2ccncc2)cc1` [Example 3, N-[2-(4-Methoxyphenylsulfamoyl)-phenyl]-isonicotinamide]?
A: inhibition at 0.5 µg/mL (rat aorta ring; [6]): 100%; inhibition at 1 µg/mL (rat aorta ring; [6]): 100%; inhibition at 4 µg/mL (rat aorta ring; [7]): 100%; inhibition at 10 µg/mL (rat aorta ring; [8]): 100%; inhibition at 0.5 µg/mL (rat aorta ring; [9]): 60%; inhibition at 1 µg/mL (rat aorta ring; [9]): 100%; inhibition at 4 µg/mL (rat aorta ring; [10]): 100%; inhibition at 10 µg/mL (rat aorta ring; [11]): 100%; cytotoxicity at 72 hours, 100 µM [1]: 92%; IC50 (HUVEC [2]; Homo sapiens): 290 ± 220 nM; IC50 (HUVEC [3]): 480 ± 270 nM; IC50 (HUVEC [4]): 680 ± 170 nM

Q: What does the source list for `COc1ccc(NS(=O)(=O)c2ccccc2NS(=O)(=O)c2cccs2)cc1` [Example 13, Thiophene-2-sulfonic acid [2-(4-methoxyphenylsulfamoyl)-phenyl]-amide]?
A: inhibition at 0.5 µg/mL (rat aorta ring; [12]): 90%; inhibition at 1 µg/mL (rat aorta ring; [12]): 100%; inhibition at 4 µg/mL (rat aorta ring; [13]): 100%; inhibition at 10 µg/mL (rat aorta ring; [14]): 100%; inhibition at 0.5 µg/mL (rat aorta ring; [9]): 90%; inhibition at 1 µg/mL (rat aorta ring; [9]): 100%; inhibition at 4 µg/mL (rat aorta ring; [10]): 100%; inhibition at 10 µg/mL (rat aorta ring; [11]): 100%; IC50 (HUVEC [2]; Homo sapiens): 280 ± 220 nM; IC50 (HUVEC [3]): 410 ± 30 nM; IC50 (HUVEC [4]): 620 ± 250 nM

Q: Which inhibition at 10 µg/mL (rat aorta ring; [8]) does the source give for `COc1ccc(S(=O)(=O)Nc2ccccc2C(=O)Nc2ccncc2)cc1` [Example 8, 2-(4-Methoxybenzenesulfonylamino)-N-pyridin-4-yl-benzamide] here?
A: The inhibition at 10 µg/mL was 80%.

Q: And the inhibition at 10 µg/mL (rat aorta ring; [11])?
A: Its inhibition at 10 µg/mL is 30%.

Q: What about the cytotoxicity at 72 hours, 100 µM [1] of the same molecule?
A: Its cytotoxicity at 72 hours, 100 µM is 84%.

Q: Which cytotoxicity at 72 hours, 100 µM [1] does the source give for `COc1ccc(NS(=O)(=O)c2ccccc2NC(=O)c2ccc([N+](=O)[O-])cc2)cc1` [Example 4, N-[2-(4-Methoxyphenylsulfamoyl)-phenyl]-4-nitrobenzamide] here?
A: The cytotoxicity at 72 hours, 100 µM was 56%.

Q: With `CC(C)c1cccc(C(C)C)c1NC(=O)c1ccccc1C(=O)Nc1c(C(C)C)cccc1C(C)C` [Example 6, N,N′-Bis-(2,6-diisopropylphenyl)-phthalamide] as the molecule, how does the inhibition at 10 µg/mL (rat aorta ring; [14]) read?
A: Its inhibition at 10 µg/mL is 10%.

Q: With `CC(C)c1cccc(C(C)C)c1NC(=O)c1ccccc1S(=O)(=O)Nc1c(C(C)C)cccc1C(C)C` [Example 1, N-(2,6,-Diisopropylphenyl)-2-(2,6-diisopropylphenylsulfamoyl)-benzamide] as the molecule, how does the “Growth Inhibition % (Day)” value (rat aorta ring; 4 μg/mL, day 7) read?
A: The value was 100 (7) %.

Q: And the “Growth Inhibition % (Day)” value (rat aorta ring; 4 μg/mL, day 14)?
A: Its value is 100 (14) %.

Q: And the “Growth Inhibition % (Day)” value (rat aorta ring; 20 μg/mL, day 7)?
A: The value was 98 (7) %.

Q: And the “Growth Inhibition % (Day)” value (rat aorta ring; 20 μg/mL, day 14)?
A: The value was 98 (14) %.

Q: What about the “Growth Inhibition % (Day)” value (rat aorta ring; 50 μg/mL, day 7) of the same molecule?
A: The value was 100 (7) %.

Q: And the “Growth Inhibition % (Day)” value (rat aorta ring; 50 μg/mL, day 14)?
A: The value was 100 (14) %.

Q: What about the “% Cytotoxicity” value [5] of the same molecule?
A: The value was 94%.

Q: What about the IC50 (HUVEC [2]) of the same molecule?
A: Its IC50 is 2400 ± 500 nM.

Q: With `COc1ccc(N(Cc2ccccc2)S(=O)(=O)c2ccccc2C(=O)Nc2ccncc2)cc1` [Example 15, 2-[Benzyl-(4-methoxyphenyl)-sulfamoyl]-N-pyridin-4-yl-benzamide] as the molecule, how does the inhibition at 4 µg/mL (rat aorta ring; [13]) read?
A: The inhibition at 4 µg/mL was 90%.

Q: For `COc1ccc(NS(=O)(=O)c2ccccc2NC(=O)c2ccc(F)cc2)cc1` [Example 5, N-[2-(4-Methoxyphenylsulfamoyl)-phenyl]-4-fluorobenzamide], which inhibition at 10 µg/mL (rat aorta ring; [8]) is on record?
A: Its inhibition at 10 µg/mL is 80%.

Q: And the inhibition at 10 µg/mL (rat aorta ring; [11])?
A: The inhibition at 10 µg/mL was 70%.

Q: What about the cytotoxicity at 72 hours, 100 µM [1] of the same molecule?
A: Its cytotoxicity at 72 hours, 100 µM is 91%.

Q: What about the IC50 (HUVEC [2]; Homo sapiens) of the same molecule?
A: Its IC50 is 7100 ± 2700 nM.

Q: And the IC50 (HUVEC [3])?
A: The IC50 was 36100 ± 9400 nM.

Q: With `COc1ccc(NS(=O)(=O)c2ccccc2S(=O)(=O)Nc2ccc(OC)cc2)cc1` [Example 12, Benzene-1,2-disulfonic acid bis-[(4-methoxyphenyl)-amide]] as the molecule, how does the inhibition at 10 µg/mL (rat aorta ring; [11]) read?
A: Its inhibition at 10 µg/mL is 20%.

Q: And the IC50 (HUVEC [2]; Homo sapiens)?
A: Its IC50 is greater than 75000 nM.

Q: What about the IC50 (HUVEC [3]) of the same molecule?
A: Its IC50 is greater than 50000 nM.

Q: And the IC50 (HUVEC [4])?
A: The IC50 was 2300 nM.

Q: What does the source list for `O=C(Nc1ccccc1)c1ccccc1S(=O)(=O)Nc1ccccc1` [Example 2, N-Phenyl-2-phenylsulfamoylbenzamide]?
A: inhibition at 4 µg/mL (rat aorta ring; [7]): 50%; inhibition at 20 µg/mL (rat aorta ring; Rattus norvegicus, 120 h, 20 μg/mL, day 5, read-out: Growth Inhibition % (Day)): 90%; inhibition at 50 µg/mL (rat aorta ring; Rattus norvegicus, 120 h, 50 μg/mL, day 5, read-out: Growth Inhibition % (Day)): 70%
